Structures are written as SMILES.

One may read the IC50 as the concentration needed to halve the response being measured.

T1 sequence (O43683 704-1085): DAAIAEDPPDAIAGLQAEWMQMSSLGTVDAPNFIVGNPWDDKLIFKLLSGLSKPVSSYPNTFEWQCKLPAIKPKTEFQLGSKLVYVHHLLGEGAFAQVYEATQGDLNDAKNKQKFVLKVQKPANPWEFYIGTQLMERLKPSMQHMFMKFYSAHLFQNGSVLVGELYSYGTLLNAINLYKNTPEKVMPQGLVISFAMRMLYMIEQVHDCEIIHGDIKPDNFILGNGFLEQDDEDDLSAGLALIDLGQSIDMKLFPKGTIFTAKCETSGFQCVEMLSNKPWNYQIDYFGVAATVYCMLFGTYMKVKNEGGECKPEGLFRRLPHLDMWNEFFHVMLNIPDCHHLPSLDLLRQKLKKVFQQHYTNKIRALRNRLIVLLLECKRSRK

The assay concerns the target T1, catalytic domain of human Bub1 (amino acids 704-1085) (Homo sapiens, UniProt O43683).
T1 construct: catalytic domain of human Bub1 (amino acids 704-1085); His6 (N); made in house; host or cells: Hi5 insect cells
The assay is described as follows: Bub1 kinase assay (TR-FRET). The format is biochemical. Conditions: TR-FRET; ATP 10 μM, peptide substrate 1 μM; 60 min at 22° C.; average or median if tested more than once; read-out: Inhibition of Bub1 kinase IC50. Put shortly:
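Eleven concentrations (0.1 nM–20 μM, duplicate) fitted by 4-parameter logistic for IC50. Read-out: EDTA-stopped TR-FRET (665/620 nm) detecting anti-phosphoserine binding to biotin-peptide (1 μM). Reaction used 10 μM ATP, 60 min at 22 °C, after 15 min compound preincubation with His-tagged human Bub1 704-1085.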
In general terms: In TR-FRET formats the signal depends on donor and acceptor labels being close together.
For `COc1cc(C(=O)Nc2cc(-c3[nH]c4c(c3Nc3ccccc3)C(=O)CN(C(C)=O)C4)ccn2)ccc1F` [Example 258], the IC50 came out at 0.01 µM.

As for `COc1cc(C(=O)Nc2cc(-c3[nH]c4c(c3Nc3ccccc3)C(=O)CN(C(=O)OC(C)(C)C)C4)ccn2)ccc1F` [Example 253, tert-butyl 2-2-[(4-fluoro-3-methoxybenzoyl)amino]pyridin-4-yl-4-oxo-3-(phenylamino)-1,4,5,7-tetrahydro-6H-pyrrolo[2,3-c]pyridine-6-carboxylate], the IC50 is 0.042 µM.

As to `CS(=O)(=O)N1CC(=O)c2c([nH]c(-c3ccnc(NC(=O)c4cncs4)c3)c2Nc2ccccc2)C1` [Example 151], the IC50 came out at 0.004 µM.

In the case of `O=C1CN(C(=O)c2cccnc2)Cc2[nH]c(-c3ccncc3)c(Nc3ccccc3)c21` [Example 62, 3-(phenylamino)-2-(pyridin-4-yl)-6-(pyridin-3-ylcarbonyl)-1,5,6,7-tetrahydro-4H-pyrrolo[2,3-c]pyridin-4-one], the IC50 amounted to 0.015 µM.

These data come from US20200216439A1, “HETERO-1,5,6,7-TETRAHYDRO-4H-INDOL-4-ONES” (BAYER PHARMA AKTIENGESELLSCHAFT, priority 2015, published 2020).
